Assay results from the NIST ThermoML archive (doi:10.1016/j.fluid.2011.08.020).

Details: Liquid, Variable volume cell

CCCCCCCCCCCCCCCCCC [octadecane]
Details	mass density [kg/m3]
323.65 K, 7000 kPa	764
323.65 K, 14400 kPa	769
323.65 K, 28300 kPa	778
323.65 K, 42200 kPa	788
323.65 K, 55600 kPa	797
323.65 K, 68900 kPa	800
422.85 K, 7700 kPa	702
422.85 K, 15100 kPa	711
422.85 K, 29400 kPa	724
422.85 K, 42500 kPa	732
422.85 K, 56100 kPa	741
422.85 K, 73200 kPa	752
422.85 K, 84500 kPa	761
422.85 K, 110000 kPa	774
422.85 K, 138500 kPa	787
422.85 K, 171700 kPa	801
422.85 K, 206100 kPa	813
422.85 K, 235500 kPa	823
422.85 K, 255900 kPa	829
522.55 K, 15300 kPa	651
522.55 K, 29400 kPa	668
522.55 K, 43200 kPa	681
522.55 K, 56400 kPa	692
522.55 K, 70800 kPa	703
522.55 K, 84400 kPa	712
522.55 K, 110000 kPa	727
522.55 K, 137800 kPa	742
522.55 K, 170400 kPa	757
522.55 K, 205300 kPa	771
522.55 K, 235700 kPa	782
522.55 K, 257000 kPa	790

CCCCCCCCCCCCCCCC [hexadecane]
Details	mass density [kg/m3]
323.65 K, 14900 kPa	758
323.65 K, 27900 kPa	769
323.65 K, 41500 kPa	779
323.65 K, 55500 kPa	787
323.65 K, 69400 kPa	792
323.65 K, 81300 kPa	799
323.65 K, 109700 kPa	807
422.85 K, 14100 kPa	700
422.85 K, 27900 kPa	713
422.85 K, 41200 kPa	724
422.85 K, 55500 kPa	734
422.85 K, 69800 kPa	743
422.85 K, 82800 kPa	750
422.85 K, 108800 kPa	765
422.85 K, 136900 kPa	778
422.85 K, 170700 kPa	792
422.85 K, 204300 kPa	804
422.85 K, 236500 kPa	815
422.85 K, 262300 kPa	823
522.55 K, 15100 kPa	643
522.55 K, 27100 kPa	660
522.55 K, 42000 kPa	675
522.55 K, 55400 kPa	687
522.55 K, 69100 kPa	698
522.55 K, 82100 kPa	707
522.55 K, 107900 kPa	723
522.55 K, 135800 kPa	738
522.55 K, 170100 kPa	755
522.55 K, 203300 kPa	769
522.55 K, 235800 kPa	782
522.55 K, 255000 kPa	788

CCCCCCCCCCCCCCCCCCCC [eicosane]
Details	mass density [kg/m3]
323.65 K, 7300 kPa	771
323.65 K, 14900 kPa	777
323.65 K, 21400 kPa	784
323.65 K, 27400 kPa	787
323.65 K, 34200 kPa	789
422.85 K, 7400 kPa	711
422.85 K, 14300 kPa	719
422.85 K, 20600 kPa	723
422.85 K, 27900 kPa	730
422.85 K, 34600 kPa	735
422.85 K, 54200 kPa	748
422.85 K, 81600 kPa	765
422.85 K, 109200 kPa	781
422.85 K, 136100 kPa	792
422.85 K, 169500 kPa	806
422.85 K, 203100 kPa	818
422.85 K, 235500 kPa	829
422.85 K, 260000 kPa	837
522.55 K, 16400 kPa	661
522.55 K, 28300 kPa	676
522.55 K, 41900 kPa	691
522.55 K, 55500 kPa	706
522.55 K, 69600 kPa	719
522.55 K, 82500 kPa	727
522.55 K, 109200 kPa	744
522.55 K, 138200 kPa	763
522.55 K, 173100 kPa	777
522.55 K, 204700 kPa	791
522.55 K, 239800 kPa	805
522.55 K, 258000 kPa	810
